From patent publication US10342776B2, “Compositions and methods for controlling infections” (priority 2004, dated 2019)

Key:
Format in all cases: cell-based
[1] = system: Candida albicans (clinical isolates, yeast phase); assay: Yeast phase Candida albicans liquid cultures with GML, CFU/ml by plating
Method: The Candida albicans samples that were tested in the experiments described in Examples 2 and 3 were recent clinical isolates. The strains were of low passage and were maintained on Todd Hewitt (Difco Laboratories, Detroit, Mich.) agar plates. The organisms were transferred to 25 ml Todd Hewitt broth cultures in 125 ml Erlenmeyer flasks and grown overnight at 37° C. in 7% CO2 with shaking at 200 revolutions per minute (RPM). The next morning the organisms were transferred to new 125 ml flasks containing 25 ml Todd Hewitt medium at a final concentration of 1×10^6 colony forming units (CFU)/ml. […] The GML was made up at a concentration of 100,000 μg/ml in absolute ethanol for addition to the flasks. […] The flasks were cultured for up to 24 hours at 37° C. in 7% CO2 with shaking at 200 revolutions per minute. […] This experiment was performed twice.
The effect of growing yeast phase organisms of a clinical isolate of Candida albicans in the presence of GML was tested in liquid cultures as described in Example 1. […] The GML-mediated killing effect was not seen in cultures containing 20 and 10 μg/ml of GML. […] The experiment was repeated with identical results. The experiment was also carried out with a second clinical isolate of Candida albicans.

Gardnerella vaginalis = assay: G. vaginalis growth on chocolate agar plates with GML; conditions: 24 hours
Method: Cells (1.2×10^7/ml in a total volume of 25 ml of dialyzable beef heart medium) of a recent clinical isolate of the gram negative rod Gardnerella vaginalis in vitro were cultured for various lengths of time with various concentrations of GML. At the various time points, the concentration of bacteria in the cultures were determined by colony counting on chocolate agar plates. GML at concentrations as low as 5 μg/ml were bactericidal to G. vaginalis. […] This finding points to the likely efficacy of GML in vivo. Moreover, GML (5 μg/ml or greater) inhibited growth of G. vaginalis plated (0.1 ml at 1.2×10^7/ml) onto chocolate agar plates (Table 3; data obtained after 24 hours of culturing).

Aspergillus fungi = assay: Mycelium formation on Todd Hewitt agar plates containing GML, Aspergillus; conditions: for mycelium growth on plates: 36 hours, room temperature
Method: (§1) Organisms (at the spore phase) of Aspergillus and Penicillium fungi obtained from nature were separately streaked on Todd Hewitt agar plates containing various concentrations of GML. The plates were incubated at room temperature for 36 hours after which mycelium growth was determined by direct visual examination. […] In contrast, the organisms grew on plates containing 0 and 50 μg/ml.

Escherichia coli = assay: Direct toxicity of GML to Escherichia coli
Text: Thus, it was surprising to discover that a number of other bacterial genera (see below) were highly sensitive to the direct toxic effects of GML.

[2] = system: Haemophilus influenzae (two clinical isolates); assay: Haemophilus influenzae growth on chocolate agar plates with GML
Method: G. vaginalis was formerly designated Haemophilus vaginalis. This consideration raised the possibility that GML would inhibit the growth of Haemophilus influenzae. Two recent clinical isolates of encapsulated (capsule type not typable) Haemophilus influenzae (0.1 ml at 1.0×10^7/ml plated) organisms were tested for ability to grow on chocolate agar plates with no or various concentrations of GML (Table 4; data obtained after 24 of culture). The growth of both strains was inhibited at GML concentrations of 10 μg/ml or greater.

Penicillium fungi = assay: Mycelium formation on Todd Hewitt agar plates containing GML, Penicillium; conditions: for mycelium growth on plates: 36 hours, room temperature
Method: as §1

[3] = system: Candida albicans (11 clinical isolates, hyphal phase); assay: Hyphal phase Candida albicans growth on Todd Hewitt agar plates containing GML; conditions: 48 hours
Method: Candida albicans microorganisms were cultured on a Todd Hewitt agar plate for 48 hours at 37° C. in the presence of 7% CO2 to promote growth of hyphal forms. This plate was used to streak the microorganisms for isolation on Todd Hewitt agar plates containing 0, 10, 20, 50, or 100 μg/mL of GML. The plates were incubated for 48 hours and examined for Candida growth. The experiment was done in duplicate plates. The results obtained with duplicate plates were the same.
Organisms (at the hyphal phase) of 11 clinical isolates of Candida albicans were separately streaked on Todd Hewitt agar plates containing various concentrations of GML. The experiments were performed in duplicate. […] In contrast, the organisms grew on plates containing 0, 10 and 20 μg/ml.

[4] = system: Bacteroides fragilis ATCC 25285; assay: Kinetics of growth inhibition of Bacteroides fragilis in WC broth with GML, plate colony counting
Method: The kinetics of growth-inhibition by GML of the obligate gram negative anaerobe Bacteroides fragilis ATCC 25285 was determined. An overnight culture of B. fragilis ATCC 25285 in Wilkens Chalgren (WC) broth was inoculated into fresh media (WC) to give a starting cell concentration of 1×10^7 cells/ml. […] […] Because growth of B. fragilis was inhibited by GML, it is expected that growth of the related gram negative anaerobe, Prevotella, would also be inhibited by GML.

[5] = first clinical isolate, 50, 200 and 1000 μg/ml GML, by 4 hours
[6] = 50 μg/ml GML, about 4 days compared to 36 hours
[7] = 100 and 500 μg/ml GML, about 4 days

In the case of CCCCCCCCCCCC(=O)OCC(O)CO (stereo not shown) [GML, glycerol monolaurate], the growth in culture ([1]; first clinical isolate, 20 and 10 μg/ml GML) is reported as “grew to almost the same level as in the control cultures”, the “organisms detectable in culture” value [1, 5] is reported as “no organisms were detectable” and the “reduction in CFU/ml” value [1, 5] is reported as > 5 log. For the same molecule, the “number of organisms in culture compared to 0 μg/ml” value ([1]; second clinical isolate, 50 μg/ml GML, 2, 4 and 6 hours) was “reduced at all time intervals sampled”, the “organisms detectable in culture” value ([1]; second clinical isolate, 100 and 500 μg/ml GML, by 2 hours) was “no organisms were detectable” and the “GML concentration that inhibited growth of G. vaginalis” value (Gardnerella vaginalis) was ≥ 5 µg/mL. For the same molecule, the “Growth Characteristics” value (Gardnerella vaginalis; GML 1 μg/ml) was “Confluent growth”, the “Growth Characteristics” value (Gardnerella vaginalis; GML 5 μg/ml) was “No visible growth” and the “Growth Characteristics” value (Gardnerella vaginalis; GML 10 μg/ml) was “No visible growth”. For the same molecule, the “Growth Characteristics” value (Gardnerella vaginalis; GML 20 μg/ml) was “No visible growth”, the “Growth Characteristics” value (Gardnerella vaginalis; GML 50 μg/ml) was “No visible growth” and the “Growth Characteristics” value (Gardnerella vaginalis; GML 100 μg/ml) was “No visible growth”. For the same molecule, the “mycelium growth on plates” value (Aspergillus fungi; 50 μg/ml GML) was “grew”, the “colony size on plates” value (Aspergillus fungi; [6]) was “larger in size” and the “mycelium growth on plates” value (Aspergillus fungi; 100 and 500 μg/ml GML) was “failed to grow”. For the same molecule, the “visible colonies on plates” value (Aspergillus fungi; [7]) was “no visible colonies”, the “resistance to direct toxicity by GML” value (Escherichia coli) was “relatively resistant” and the “Growth Characteristics (Strain 1)” value ([2]; GML 1 μg/ml) was “Confluent growth”. The “Growth Characteristics (Strain 2)” value ([2]; GML 1 μg/ml) was “Confluent growth”, the “Growth Characteristics (Strain 1)” value ([2]; GML 5 μg/ml) was “Confluent growth” and the “Growth Characteristics (Strain 2)” value ([2]; GML 5 μg/ml) was “Confluent growth”. The “Growth Characteristics (Strain 1)” value ([2]; GML 10 μg/ml) was “No visible growth”, the “Growth Characteristics (Strain 2)” value ([2]; GML 10 μg/ml) was “No visible growth” and the “Growth Characteristics (Strain 1)” value ([2]; GML 20 μg/ml) was “No visible growth”. The “Growth Characteristics (Strain 2)” value ([2]; GML 20 μg/ml) was “No visible growth”, the “Growth Characteristics (Strain 1)” value ([2]; GML 50 μg/ml) was “No visible growth” and the “Growth Characteristics (Strain 2)” value ([2]; GML 50 μg/ml) was “No visible growth”. For the same molecule, the “Growth Characteristics (Strain 1)” value ([2]; GML 100 μg/ml) was “No visible growth”, the “Growth Characteristics (Strain 2)” value ([2]; GML 100 μg/ml) was “No visible growth” and the “GML concentration at which growth was inhibited” value ([2]; both strains, chocolate agar plates) was ≥ 10 µg/mL. The “mycelium growth on plates” value (Penicillium fungi; 50 μg/ml GML) was “grew”, the “colony size on plates” value (Penicillium fungi; [6]) was “larger in size” and the “mycelium growth on plates” value (Penicillium fungi; 100 and 500 μg/ml GML) was “failed to grow”. The “visible colonies on plates” value (Penicillium fungi; [7]) was “no visible colonies”, the “growth on agar plates” value ([3]; 10 and 20 μg/ml GML) was “grew” and the “growth on agar plates” value ([3]; 50 and 100 μg/ml GML) was “failed to grow”. The “Cells/ml ×10^7 at 4.5 hours” value ([4]; GML 1 μg/ml, 4.5 hours) was 16 Cells/ml ×10^7, the “Cells/ml ×10^7 at 25 hours” value ([4]; GML 1 μg/ml) was 130 Cells/ml ×10^7 and the “Cells/ml ×10^7 at 4.5 hours” value ([4]; GML 10 μg/ml, 4.5 hours) was 1.4 Cells/ml ×10^7. The “Cells/ml ×10^7 at 25 hours” value ([4]; GML 10 μg/ml) was 150 Cells/ml ×10^7, the “Cells/ml ×10^7 at 4.5 hours” value ([4]; GML 20 μg/ml, 4.5 hours) was <0.01 Cells/ml ×10^7 and the “fold fewer bacteria than the control culture” value ([4]; GML 20 μg/ml, 4.5 hours) was “at least 1,000 fold”. For the same molecule, the regrowth of culture ([4]; GML 20 μg/ml, 24 hours) was “regrowth was observed”, the “Cells/ml ×10^7 at 25 hours” value ([4]; GML 20 μg/ml) was 200 Cells/ml ×10^7 and the “Cells/ml ×10^7 at 4.5 hours” value ([4]; GML 50 μg/ml, 4.5 hours) was <0.01 Cells/ml ×10^7. For the same molecule, the “Cells/ml ×10^7 at 25 hours” value ([4]; GML 50 μg/ml) was <10 Cells/ml ×10^7, the “Cells/ml ×10^7 at 4.5 hours” value ([4]; GML 100 μg/ml, 4.5 hours) was <0.001 Cells/ml ×10^7 and the “Cells/ml ×10^7 at 25 hours” value ([4]; GML 100 μg/ml) was <10 Cells/ml ×10^7. The “growth of B. fragilis bacteria” value ([4]; GML 50 and 100 μg/ml) was “inhibited the growth”.
